Data set [1] relates to three-week old E. faecalis biofilm. Put plainly: biofilm disruption assay on infected dentin samples (Example 2). To be noted: immersion 5 minutes. In kind it is cell-based, E. faecalis (ATCC 29212). As for the experimental part:
Unidentified intact human teeth were collected, stored in 0.1% thymol solution at 4° C., and used within 6 months after obtaining local Institutional Review Board approval (IRB #1409251353). A standardized radicular dentin sample (4×4×1 mm^3) was obtained from each root using a slow diamond saw (IsoMet, Buehler, Lake Bluff, Ill.) under continuous distilled water irrigation. The pulpal side of each specimen was wet-finished with silicon carbide abrasive papers (500-2400 grit, Struers, Cleveland, Ohio). The polished samples were then sonicated in deionized water for 3 minutes, washed with sterile water, wrapped individually with moist cotton pellets, placed in Whirl-pak bags (Sigma-Aldrich, St Louis, Mo.), gas sterilized with ethylene oxide, and stored at 4° C. until used. E. faecalis (ATCC 29212) was grown initially on anaerobic blood agar plates (CDC, BioMerieux, Durham, N.C.). Colonies of E. faecalis were then suspended in brain-heart infusion (BHI) broth supplemented with 5 grams yeast extract/L (BHI-YE) and incubated for 24 hours at 37° C. with 5% CO2. Dentin samples were placed individually in separate wells of a 96-sterile well plate (Fisherbrand, Fischer Scientific) with the pulpal side facing upwards. […] The CFUs/mL were quantified using an automated colony counter (Synbiosis, Inc., Frederick, Md.). Summary statistics were calculated for the log-transformed data from each group. […]

For data set [2], the system named is stem cells from apical papillae and dental pulp stem cells. The note with it: 2% CHX; in vitro studies; cited from earlier work.

For `N=C(NCCCCCCNC(=N)NC(=N)Nc1ccc(Cl)cc1)NC(=N)Nc1ccc(Cl)cc1` [CHX], the “antibiofilm effect (log CFU/mL)” value in data set [1] (2% CHX, versus control groups, not complete eradication) was “significant reduction in E. faecalis biofilm”. In data set [2], the “effect on survival and attachment of stem cells from apical and dental pulp” value is reported as “highly unfavorable effects”.
On to `OCl` [NaOCl, sodium hypochlorite], for which the “antibiofilm effect (log CFU/mL)” value in data set [1] (1.5% NaOCl) is “complete eradication”.
